Test results published in US8053581B2, “Trisubstituted thiazole compounds, preparations methods, pharmaceutical compositions and medicals uses thereof” (Institute of Pharmacology and Toxicology Academy of …, priority 2006, dated 2011).

Assays:
PLTP [1] = target: T1, PLTP (Homo sapiens, UniProt P55058); test: Determination of PLTP inhibition activity (radiolabelled phospholipid liposome to HDL transfer with plasma); type: biochemical; details: for inhibition at 250 µM: Concentration of compounds 250 μM; for inhibition at 250 µM / inhibition at 150 µM / inhibition at 500 µM: read-out: PLTP inhibition activity Inhibition rate(%); for inhibition at 150 µM: Concentration of compounds 150 μM; for inhibition at 500 µM: Concentration of compounds 500 μM
T1 construct: from tissue
Experimental: 30 μl (about 1000 cpm/μl) phospholipids liposome, 30 μl HDL ([…]), 337 μl TSE and 3 μl plasma were mixed, incubated in 37° C. water-bath for 1 hour, and then added 300 μl of a settling solution (50 ml solution preparation: 5.36 ml 5N NaCl, 9.075 ml 2M MnCl2 and 46 mg liver phospholipid were mixed, added water to 50 ml), the solution was stood at room temperature for 10 minutes, rotated at high speed for 10 minutes (to remove phospholipids liposome), 500 μl of the supernatant was sampled and counted. PLTP activity (cpm/h/3 μl)=sample cpm-background cpm.

CETP [2] = target: T2, CETP (Homo sapiens, UniProt P11597); test: Determination of CETP inhibition activity (fluorescent donor/acceptor transfer); type: biochemical; details: for inhibition at 500 µM: Concentration of compounds 500 μM, read-out: CETP inhibition activity Inhibition rate(%)
T2 sequence (P11597 18-493): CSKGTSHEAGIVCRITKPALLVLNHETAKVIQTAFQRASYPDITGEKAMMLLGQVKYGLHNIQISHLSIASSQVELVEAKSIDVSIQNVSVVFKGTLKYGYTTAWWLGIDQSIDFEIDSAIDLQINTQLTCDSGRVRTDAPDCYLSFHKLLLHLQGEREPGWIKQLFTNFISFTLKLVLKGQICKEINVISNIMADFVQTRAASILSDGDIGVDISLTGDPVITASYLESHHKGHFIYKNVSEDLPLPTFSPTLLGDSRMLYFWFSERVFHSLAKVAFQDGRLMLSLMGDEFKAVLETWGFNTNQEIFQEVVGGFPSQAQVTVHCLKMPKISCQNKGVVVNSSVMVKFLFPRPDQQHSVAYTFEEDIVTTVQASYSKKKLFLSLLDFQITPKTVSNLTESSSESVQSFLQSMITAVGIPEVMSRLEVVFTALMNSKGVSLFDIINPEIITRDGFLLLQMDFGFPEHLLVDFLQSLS
Experimental: A mixture containing 3 μl of a donor, 9 μl of an acceptor (250 μg protein), 3 μl of CETP solution and 85 μl of an analytic buffer, 10 mM Tris, 0.15 M NaCl and 2 mM EDTA, pH 7.4 was incubated at 37° C. for 0.5 hours, the fluorescence intensity was determined on Victor 3 double illuminometer/fluorescence counter (Perkin Elmer) carrying […] light wave length.

PLTP [3] = target: T1, PLTP; details: reported in WO 2002068450; read-out: Ki value to inhibit PLTP; cited from earlier work
CETP [4] = target: T2, CETP; details: reported in WO 2002068450; read-out: Ki value to inhibit CETP; cited from earlier work

T1 sequence (P55058 18-493, species assumed): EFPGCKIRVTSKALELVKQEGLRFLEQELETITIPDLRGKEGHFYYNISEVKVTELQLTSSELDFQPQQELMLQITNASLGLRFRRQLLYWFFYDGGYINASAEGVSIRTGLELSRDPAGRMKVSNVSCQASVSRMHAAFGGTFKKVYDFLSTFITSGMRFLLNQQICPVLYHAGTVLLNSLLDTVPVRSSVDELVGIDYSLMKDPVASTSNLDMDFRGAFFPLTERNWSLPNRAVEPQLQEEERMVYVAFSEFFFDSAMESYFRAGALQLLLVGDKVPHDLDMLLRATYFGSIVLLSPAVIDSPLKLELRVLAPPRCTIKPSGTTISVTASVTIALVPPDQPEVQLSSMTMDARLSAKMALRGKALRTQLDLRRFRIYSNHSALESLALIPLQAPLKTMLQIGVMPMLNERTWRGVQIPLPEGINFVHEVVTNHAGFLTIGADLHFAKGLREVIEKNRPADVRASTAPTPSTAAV

Row | Structure (SMILES) | IC50 (PLTP [1]) | inhibition at 250 µM (PLTP [1]) | inhibition at 500 µM (CETP [2]) | melting point | inhibition at 150 µM (PLTP [1]) | inhibition at 500 µM (PLTP [1]) | IC50 (CETP [2]) | Ki (PLTP [3]) | Ki (CETP [4])
1 | O=C(Nc1nc(-c2ccc(O)cc2)c(Cc2ccc([N+](=O)[O-])cc2)s1)c1ccc(O)c(O)c1 [Example 34, 3,4-dihydroxy-N-[4-(4-hydroxy-phenyl)-5-(4-nitro-benzyl)-thiazol-2-yl]-benzamide] | 100 µM | 67.6% | 30.4% | 195 to 196 °C | – | – | – | – | –
2 | O=C(Nc1nc(-c2ccc(O)cc2)c(Cc2ccccc2)s1)c1ccc(O)cc1O [Example 38, N-[5-benzyl-4-(4-hydroxy-phenyl)-thiazol-2-yl]-2,4-dihydroxy-benzamide] | – | – | 88% | 217 to 219 °C | 11.5% | – | – | – | –
3 | COc1ccc(C(=O)Nc2nc(-c3ccc(O)cc3)c(Cc3ccccc3)s2)cc1 [Example 40, N-[5-benzyl-4-(4-hydroxy-phenyl)-thiazol-2-yl]-4-methoxy-benzamide] | – | – | 71.6% | 124 to 125 °C | 0% | – | – | – | –
4 | O=C(Nc1nc(-c2ccc(O)cc2)c(Cc2ccccc2)s1)c1cc(O)c(O)c(O)c1 [Example 41, N-[5-benzyl-4-(4-hydroxy-phenyl)-thiazol-2-yl]-3,4,5-trihydroxy-benzamide] | 15 µM | – | 44.1% | 245 to 246 °C | 89.4% | – | – | – | –
5 | COc1ccc(-c2nc(N)sc2CC2CCCCC2)cc1 [Example 47, 5-cyclohexylmethyl-4-(4-methoxy-phenyl)-thiazol-2-ylamine] | – | – | 79.8% | 118 to 119 °C | 0% | – | – | – | –
6 | O=C(Nc1nc(-c2ccc(O)cc2)c(CC2CCCCC2)s1)c1ccc(O)c(O)c1 [Example 49, N-[5-cyclohexylmethyl-4-(4-hydroxy-phenyl)-thiazol-2-yl]-3,4-dihydroxy-benzamide] | 35 µM | – | 6% | 133 to 134 °C | 81.6% | – | – | – | –
7 | O=C(Nc1nc(-c2ccc(O)cc2)c(CC2CCCCC2)s1)c1cc(O)c(O)c(O)c1 [Example 51, N-[5-cyclohexylmethyl-4-(4-hydroxy-phenyl)-thiazol-2-yl]-3,4,5-trihydroxy-benzamide] | 18 µM | 100% | 20.9% | 238 to 239 °C | – | – | – | – | –
8 | Cc1sc(NC(=O)c2cc(O)c(O)c(O)c2)nc1-c1ccc(O)cc1 [Example 55, 3,4,5-trihydroxy-N-[4-(4-hydroxy-phenyl)-5-methyl-thiazol-2-yl]-benzamide] | – | 10.7% | 85.9% | 262 to 263 °C | – | – | – | – | –
9 | CC(C)(C)C(=O)Nc1ccccc1SSc1ccccc1NC(=O)C(C)(C)C [N-{2-[2-(2,2-dimethyl-propanamido)-phenyldithio]-phenyl}-2,2-dimethyl-propanamide] | – | – | – | – | – | – | – | 15 µM | 13 µM

More lines, main results first:

Row | IC50 (PLTP [1]) | inhibition at 250 µM (PLTP [1]) | inhibition at 500 µM (CETP [2]) | melting point | inhibition at 150 µM (PLTP [1]) | inhibition at 500 µM (PLTP [1]) | IC50 (CETP [2]) | Structure (SMILES) | Ki (PLTP [3]) | Ki (CETP [4])
10 | – | 24% | 75.8% | 143 to 144 °C | – | – | – | COc1ccc(-c2nc(N)sc2CCc2ccccc2)cc1 [Example 57, 4-(4-methoxy-phenyl)-5-phenylethyl-thiazol-2-ylamine] | – | –
11 | 35 µM | 97% | 0% | 208 to 209 °C | – | – | – | O=C(Nc1nc(-c2ccc(O)cc2)c(CCc2ccccc2)s1)c1ccc(O)c(O)c1 [Example 60, 3,4-dihydroxy-N-[4-(4-hydroxy-phenyl)-5-phenylethyl-thiazol-2-yl]-benzamide] | – | –
12 | – | 15.3% | 65.4% | 118 to 119 °C | – | – | – | CCCCc1sc(N)nc1-c1ccc(OC)cc1 [Example 62, 4-(4-methoxy-phenyl)-5-n-butyl-thiazol-2-ylamine] | – | –
13 | 75 µM | 93.4% | 0% | 189 to 190 °C | – | – | – | CCCCc1sc(NC(=O)c2ccc(O)c(O)c2)nc1-c1ccc(O)cc1 [Example 65, N-[5-n-butyl-4-(4-hydroxy-phenyl)-thiazol-2-yl]-3,4-dihydroxy-benzamide] | – | –
14 | 75 µM | 100% | 27.3% | 119 to 120 °C | – | – | – | CCCCc1sc(NC(=O)c2cc(O)c(O)c(O)c2)nc1-c1ccc(O)cc1 [Example 66, N-[5-n-butyl-4-(4-hydroxy-phenyl)-thiazol-2-yl]-3,4,5-trihydroxy-benzamide] | – | –
15 | 75 µM | – | 25.3% | 94 to 95 °C | 75.7% | – | – | O=C(CCc1ccc(O)c(O)c1)Nc1nc(-c2ccc(O)cc2)c(Cc2ccccc2)s1 [Example 69, N-[5-benzyl-4-(4-hydroxy-phenyl)-thiazol-2-yl]-3-(3,4-dihydroxy-phenyl)-propanamide] | – | –
16 | – | – | 91.6% | 88 to 89 °C | – | 61% | 75 µM | COc1ccc(-c2nc(N3CCOCC3)sc2Cc2ccccc2)cc1 [Example 70, 4-[5-benzyl-4-(4-methoxy-phenyl)-thiazol-2-yl]-morpholine] | – | –
17 | – | – | 74.5% | 111 to 112 °C | – | 100% | – | COc1ccc(-c2nc(N3CCNCC3)sc2Cc2ccccc2)cc1.Cl.Cl.Cl [Example 72, 1-[5-benzyl-4-(4-methoxy-phenyl)-thiazol-2-yl]-piperazine trihydrochloride] | – | –
